Results published in US7482339B2, “2-Naphthylimino-1,3-thiazine derivative” (Shionogi and Co., Ltd., priority 2003, dated 2009).
Read-outs that look alike come from different tables or passages of the source.

Columns and labels:
human CB1R [1] = target: T1, human CB1R (Homo sapiens, UniProt P21554); assay: Human CB receptor binding inhibition ([3H]CP55940), CB1R; settings: membranes of CB1R-expressing CHO cells, 0.5 nM [3H]CP55940, 2 hr at 25° C.; read-out: CB receptor binding inhibition Ki CB1
T1 construct: expressed in transfected cells; host or cells: CHO cells (crude membrane fractions)
Method: (§1) The crude membrane fractions were then prepared from the CB1R or CB2R-expressing CHO cells. Receptor binding assay was performed by incubating the membranes with each test compound and 38,000 dpm [^3H]CP55940 (at a final concentration of 0.5 nM: PerkinElmer Life & Analytical Sciences) in the assay buffer (50 mM Tris-HCl, […], 3 mM MgCl2, pH 7.4) containing 0.5% bovine serum albumin (BSA) for 2 hr at 25° C. The incubation mixture was filtered through 1% polyethylenimine (PEI)-treated GF/C glass filter and washed with 50 mM Tris-HCl (pH 7.4) containing 0.1% BSA. The radioactivity was then counted with a liquid scintillation counter. Nonspecific binding was determined in the presence of 10 μM WIN55212-2 (a CBR agonist described in the patent U.S. Pat. No. 508,122, Sigma), and the specific binding was calculated by subtracting the nonspecific binding from the total binding. The IC50 value for each test compound was determined as the concentration at which 50 % of the specific binding was inhibited. As a consequence of these studies, the Ki values of each test compound were determined from the IC50 value and the Kd vale of [^3H]CP55940.

human CB2R [2] = target: T2, human CB2R (Homo sapiens, UniProt P34972); assay: Human CB receptor binding inhibition ([3H]CP55940), CB2R; settings: membranes of CB2R-expressing CHO cells, 0.5 nM [3H]CP55940, 2 hr at 25° C.; read-out: CB receptor binding inhibition Ki CB2
T2 construct: expressed in transfected cells; host or cells: CHO cells (crude membrane fractions)
Method: as §1

human CB1R [3] = target: T1, human CB1R; assay: CBR-mediated suppression of forskolin-stimulated cAMP synthesis, CHO cells expressing CB1R; type: cell-based; settings: 4 μM forskolin, read-out: Inhibition of cAMP synthesis IC50 CB1
Method: (§2) The CHO cells expressing human CB1R or CB2R were incubated with test compounds for 15 min. After the incubation, 4 μM forskolin (Sigma) was added and the cells were incubated for 20 min. The reaction was stopped by the addition of 1N HCl and the amount of cAMP in the cell supernatant was measured using an Cyclic AMP kit (CIS bio international) according to the manufacture's protocol. The cAMP amount increased by forskolin compared to that in the absence of forskolin was defined as 100%, and the IC50 value of each test compound was determined as the concentration at which 50% of the forskolin-stimulated cAMP synthesis was inhibited.

human CB2R [4] = target: T2, human CB2R; assay: CBR-mediated suppression of forskolin-stimulated cAMP synthesis, CHO cells expressing CB2R; type: cell-based; settings: 4 μM forskolin, read-out: Inhibition of cAMP synthesis IC50 CB2
Method: as §2

[5] = system: formalin-induced hyperalgesia in ICR mice; assay: Inhibitory effect against formalin-induced hyperalgesia in ICR mice; type: in vivo; settings: Mus musculus, male ICR mice, oral administration 2 h prior to formalin
Method: The inhibitory effects of the compounds of the present invention against formalin-induced hyperalgesia were examined in male ICR mice (5 W). Test compounds were dissolved in sesami oil and applied orally 2 h prior to the subcutaneous formalin injection (2% 20 μL) into the right hind paw. In this experiment, observation period was set to 30 min and divided into two parts, the first 5 minutes immediately after the formalin injection (first phase) and 10 to 30 min minutes after the formalin injection (second phase). The strength for pain sensation was evaluated by the total time for licking and biting behavior. The inhibitory effect of the test compounds on such behavior was evaluated and the ED50 value was calculated.

[6] = system: compound 48/80-induced pruritus in ICR strain mice; assay: Inhibitory effect on compound 48/80-induced pruritus in ICR strain mice; type: in vivo; settings: Mus musculus, po, 0.5 h; female ICR strain mice, orally administered once, scratching counted for 30 min; read-out: anti-pruritic effect ED50
Method: The experiment was carried out by the method of Inagaki et al. (Eur J Pharmacol 1999;367:361-371) with some modifications. Briefly, the back of female ICR strain mice was clipped, and compound 48/80 (3 μg/50 μL/site) was injected intradermally to elicit the response. The number of scratching behavior to the injection site by hind paws, which was observed immediately after the injection, was counted for 30 min. Test compounds, dissolved in sesame oil, were orally administered once. […] the injection of compound 48/80 at pre-determine time when the maximal plasma concentration of the compound was obtained. The inhibitory effect against pruritus was evaluated by comparing the number of scratching in the compound-administered group with that in the vehicle-administered group, and then ED50 value was calculated.

[7] = 10 to 30 min after formalin injection, read-out: Inhibitory effect against formalin-induced hyperalgesia (ED50) Second phase
[8] = first 5 minutes after formalin injection, read-out: Inhibitory effect against formalin-induced hyperalgesia (ED50) First phase

T1 sequence (P21554 whole entry): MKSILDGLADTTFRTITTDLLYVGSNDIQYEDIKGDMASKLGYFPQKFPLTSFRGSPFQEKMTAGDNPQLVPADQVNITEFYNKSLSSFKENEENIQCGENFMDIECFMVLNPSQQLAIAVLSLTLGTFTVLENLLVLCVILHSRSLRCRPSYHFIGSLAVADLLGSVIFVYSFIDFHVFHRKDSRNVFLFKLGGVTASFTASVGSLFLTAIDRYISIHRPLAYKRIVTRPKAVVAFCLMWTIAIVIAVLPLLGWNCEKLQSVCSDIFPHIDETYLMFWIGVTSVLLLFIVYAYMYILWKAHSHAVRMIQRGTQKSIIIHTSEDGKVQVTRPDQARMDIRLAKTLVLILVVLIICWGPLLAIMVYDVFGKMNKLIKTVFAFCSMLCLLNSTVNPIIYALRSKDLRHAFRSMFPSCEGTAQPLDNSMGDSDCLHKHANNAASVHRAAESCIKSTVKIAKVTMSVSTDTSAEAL
T2 sequence (P34972 whole entry): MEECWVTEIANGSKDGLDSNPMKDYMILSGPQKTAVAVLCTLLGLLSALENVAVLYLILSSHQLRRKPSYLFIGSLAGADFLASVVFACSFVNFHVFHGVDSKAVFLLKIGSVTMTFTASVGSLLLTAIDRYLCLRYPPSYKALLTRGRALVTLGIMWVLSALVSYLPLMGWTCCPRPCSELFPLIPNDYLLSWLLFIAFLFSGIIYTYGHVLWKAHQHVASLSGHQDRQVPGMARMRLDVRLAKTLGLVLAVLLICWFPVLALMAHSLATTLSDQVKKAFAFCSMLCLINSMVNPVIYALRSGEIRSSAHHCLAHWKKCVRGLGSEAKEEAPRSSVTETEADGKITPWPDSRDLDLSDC

Row | Compound | Ki (human CB1R [1]) [nM] | Ki (human CB2R [2]) [nM] | IC50 (human CB1R [3]) [nM] | melting point [°C] | IC50 (human CB2R [4]) [nM] | ED50 [5, 7] [mg/kg] | ED50 [5, 8] [mg/kg] | ED50 [6] [mg/kg]
1 | CSC(=S)N1CC(C(C)C)(C(C)C)CSC1=Nc1ccc(F)c2ccccc12 [Compound I-142] | 20 | 1.2 | 14 | 118 to 119 | – | – | – | –
2 | CSC(=S)N1CC2(CCCCC2)CSC1=Nc1ccc(Cl)c2ccccc12 [Compound I-33] | 20.7 | 1.2 | – | 181 to 182 | – | – | – | –
3 | C=CCC1(CC=C)CSC(=Nc2cccc3ccccc23)N(C(=S)SC)C1 [Compound I-28] | 31.4 | 4.8 | – | – | – | – | – | –
4 | CCCC1(CCC)CSC(=Nc2cccc3ccccc23)N(C(=O)SC)C1 [Compound I-25] | 42.5 | 1 | – | 108.5 to 109.5 | – | – | – | –
5 | CSC(=S)N1CC(C(C)C)(C(C)C)CSC1=Nc1ccc(N(C)C)c2ccccc12 [Compound I-43, 3-[(methylthio)thiocarbonyl]-2-(4-dimethylamino-1-naphthylimino)-5,5-diisopropyl-1,3-thiazine] | 21.4 | 11.3 | – | – | – | – | – | –
6 | CSC(=S)N1CC(C(C)C)(C(C)C)CSC1=Nc1cccc2cc(OCC(=O)OC(C)(C)C)ccc12 [Compound I-77] | 35 | 1.5 | – | – | – | – | – | –
7 | CSC(=S)N1CC(C(C)C)(C(C)C)CSC1=Nc1cccc2ccccc12 [Compound I-27] | 13 | 0.3 | 8.1 | 121 to 122 | – | – | – | –
8 | CSC(=O)N1CC(C(C)C)(C(C)C)CSC1=Nc1ccc(F)c2ccccc12 [Compound I-143] | 29 | 1.4 | 35 | 109 to 110 | – | – | – | –
9 | CSC(=S)N1CC(C(C)C)(C(C)C)CSC1=Nc1ccc(Cl)c2ccccc12 [Compound I-113] | 10 | 0.9 | 13 | 86.5 to 87.5 | 1.5 | – | – | –
10 | CCCC1(CCC)CSC(=Nc2cccc3ccccc23)N(C(=S)SC)C1 [Compound I-22] | 20 | 1.5 | – | 139 to 140.5 | – | – | – | –
11 | CSC(=S)N1CC2(CCCCC2)CSC1=Nc1cccc2ccccc12 [Compound I-23, 3-[(methylthio)thiocarbonyl]-2-(1-naphthylimino)-5,5-pentamethylene-1,3-thiazine] | 29.6 | 6 | 10.4 | 118 to 119 | 1.7 | 1 | 1.5 | 0.54
12 | CSC(=S)N1CC2(CCCCC2)CSC1=Nc1ccc(F)c2ccccc12 [Compound I-140] | 59 | 0.8 | 27 | 139 to 140 | – | – | – | –
13 | CSC(=S)N1CC2(CCCCC2)CSC1=Nc1ccc(C#N)c2ccccc12 [Compound I-144] | 54 | 1 | 52 | 164 to 165 | – | – | – | –
14 | CSC(=O)N1CC(C(C)C)(C(C)C)CSC1=Nc1ccc(Cl)c2ccccc12 [Compound I-114] | 25 | 5.9 | 24 | 111.5 to 112.5 | 48 | – | – | –
15 | CSC(=O)N1CC(C(C)C)(C(C)C)CSC1=Nc1cccc2ccccc12 [Compound I-29] | 6 | 1.7 | 17.5 | 98 to 99 | – | 3.5 | 3.6 | –
